Experimental data from US5707996A, “Pharmaceutical solution and methods for preparation thereof” (Macleod Pharmaceuticals, Inc., priority 1995, dated 1998).
Read-outs that look alike come from different tables or passages of the source.

How the values were obtained:
[1] = cited from earlier work
protozoal enzymes = conditions: versus host cells; cited from earlier work

Structure (SMILES) | solubility in water (in words) [1] | solubility in water ([1]; room temperature) | selectivity for inhibiting folate synthesis in protozoal enzymes (protozoal enzymes) | solubility in 2-pyrrolidone (45° C.) | solubility in 2-pyrrolidone (room temperature) | solubility in NMP (NMP, room temperature) | solubility in acidic or basic aqueous medium (acidic or basic aqueous medium, room temperature)
COc1cc(Cc2cnc(N)nc2N)cc(OC)c1OC [Trimethoprim, 5-[(3,4,5-trimethoxyphenyl)methyl]-2,4-pyrimidinediamine] | not soluble in water | about 0.04 g/100 ml | high selectivity | about 2.0 g/10 ml | about 0.4 g/10 ml | about 1.6 g/10 ml | –
Nc1ccc(S(=O)(=O)Nc2ncccn2)cc1 [Sodium sulfadiazine] | soluble in water | – | – | – | – | – | –
Nc1ccc(S(=O)(=O)Nc2ncccn2)cc1 [sulfadiazine, 4-amino-N-2-pyrimidinylbenzenesulfonamide] | – | – | – | – | – | – | at least 2.3 g/10 ml
